Measurements published in patent US20080113908A1, “Use of CRF receptor agonists for the treatment or Prophylaxis of diseases, for example Neurodegenerative diseases” (SmithKline Beecham plc, priority 2000, published 2008).
In brackets after ≈: the same amount, converted by molar mass. Read-outs that look alike come from different tables or passages of the source.

Columns and labels:
[1] = test system: GSK-3β; test: Western blot of serine-9-phosphorylated GSK-3β (FIG. 5); assay type: cell-based, rat; details: compound alone, 2 hours; CRF 10 nM, LY 294002 75 μM, FSK 30 μM
Description: It was thought that CRF receptor agonists might interact with the PI 3-kinase signalling pathway and exert their neuroprotective effect by phosphorylating and inhibiting the protein GSK-3β,which is pro-apoptotic (M. Pap and G. M. Cooper, J. Biol. Chem., 273(32), 19929-19932, 1998; and M. Hetman et al. J. Neurosci., 1st Apr. 2000, 20(7), 2567-2574; discussed hereinabove). In order to confirm this, the level of GSK-3β phosphorylated at serine-9 (e.g. see D. A. E. Cross, Nature, 378, 785-789, 1995) in control cultures of cerebellar granule neurones was measured using Western blots, and compared to the level of phospho-GSK-3β in the presence of CRF as a model CRF receptor agonist and/or in the presence of the PI 3-kinase inhibitor LY 294002. In order to determine whether elevation of cAMP was involved in any effect, the level of phospho-GSK-3β in cultures in the presence of the known cAMP-elevating agent forskolin (FSK, obtainable e.g. from Calbiochem.) with or without LY 294002 present was also measured. The forskolin acts as a benchmark for cAMP-related effects.
The method used was as follows. […]
Phosphorylation of GSK-3β was detected using an antibody to serine-9-phosphorylated GSK-3β (anti-phospho-GSK-3β (Ser9)) available as catalogue no. […]

[2] = molecular target: PI 3-kinase; details: cited from earlier work
[3] = test system: cerebellar granule neurones; assay type: cell-based, rat; details: 48 h, MTT, sham-treated = 100%
Experimental: Cerebellar granule neurones were used in the examples to test neuroprotection by CRF receptor agonists. Cerebellar granule neurones (CGNs) undergo apoptosis during the first few weeks of postnatal life, and in culture require mildly depolarising concentrations of KCl (25 mM) for their survival and maturation (S. R: D'Mello et al., Proc. Natl. Acad. Sci. USA 90, 10989-10993, 1993). The growth signal provided by KCl depends upon activation of the phosphatidylinositol 3-kinase (PI 3-kinase) pathway, and pharmacological inhibition of PI 3-kinase in differentiated granule neurones leads to apoptotic death in the CGNs (T. M. Miller et al., J. Biol. Chem., 272, 9847-9853, 1997). Thus, cultured CGNs represent a suitable model to study mechanisms of programmed cell death, and to identify putative neuroprotective signalling pathways.
Assay 1: Cerebellar granule neurones prepared from postnatal day 8 Sprague Dawley rat pups were used for experiments on death induced by inhibition of PI 3-kinase. General culture methods are described in S. D. Skaper et al. in Methods in Neurosciences, Vol. 2 (Conn P. M., ed), pp. 17-33. Academic Press, San Diego, 1990. At 8-9 days in vitro (DIV), granule neurone cultures were shifted to phenol red-free Dulbecco's modified Eagle's medium lacking serum, and containing 0.05% bovine serum albumin and 25 mM KCl. Death was induced by addition of the PI 3-kinase inhibitor LY 294002 (75 μM). CRF or CRF agonist peptides (urotensin 1, urocortin, sauvagine) were added at different concentrations (from 0.3nM to 300 nM or 1000 nM) together with LY 294002. Forty-eight hours later neuronal survival was quantified by a colorimetric reaction MTT. Absolute MTT values obtained were normalised for small differences in interexperiment plating densities by scaling to the mean of sham-treated sister cultures (defined as 100%).
Results are shown in Table 1 below and in graphical form in FIG. 1, which show the percentage mean neuronal survival (and standard deviation), when in the presence of the relevant CRF receptor agonists and LY 294002, as a function of agonist concentration. […] Urotensin 1, urocortin and sauvagine were also neuroprotective albeit with lower potency (<1 μM).

[4] = test system: cerebellar granule neurones; test: Assay 3: intracellular cyclic AMP enzyme immunoassay; assay type: cell-based, rat; details: agonist 0 to 30 nM, 15 min, 0.5 mM IBMX
Experimental: Assay 3: The production of cAMP by the CRF receptor agonist peptides CRF, urotensin 1, urocortin and sauvagine was measured as follows. This assay can be used analogously for any putative CRF receptor agonists including non-peptide agonists.
Intracellular cyclic AMP was measured with a cAMP 2-site enzyme immunoassay system (trade mark BIOTRAK, commercially available from Amersham Pharmacia Biotech, PO Box 164, Rainham, Essex RM13 8JZ, United Kingdom, Amersham catalogue number RPN225), based upon the use of a sensitive and highly specific capture antibody for cyclic AMP:
Cerebellar granule neurones were seeded in polylysine-coated […] plates, 3.5×10^5 cells per 48-well, in Basal medium Eagle's containing 10% fetal calf serum, 25 mM KCl, and antibiotics. At 8-9 days in vitro, granule neurone cultures were shifted to serum-free plating medium (0.4 ml) with 0.5 mM IBMX (to inhibit the breakdown of cyclic AMP) for 15 min (37° C.). Wells then received 0.1 ml of test peptide (5× final concentration). Generally 1 μM is the preferable final concentration for a putative CRF agonist under test, though different (e.g. lower) concentrations can be used as shown for the peptide agonists in FIG. 3. Incubation was continued for 15 min. Test medium was removed and the plate placed on dry ice, and stored at −140° C. Cyclic AMP analysis was performed the following day.
Cells were then lysed with the reagent provided with the BIOTRAK kit. Intracellular content of cyclic AMP in the lysates was assayed following the manufacturer's instructions. A standard curve was constructed using the cyclic AMP calibration provided, with the quantity of bound cyclic AMP being inversely proportional to the amount of second (chromogenic) antibody bound to the reaction wells. The colour product was read with an ELISA plate reader, and was a function of the amount of cyclic AMP in the unknown sample.

[5] = test system: spontaneous hypertensive rats (SHR); test: Distal middle cerebral artery occlusion (MCAO), icv dosing (FIG. 7); assay type: in vivo; details: 10 μg/rat icv, 15 min and 2 hours post MCAO; 24 h permanent MCAO
Experimental: The animal protocols are as follows.
Focal ischemia experiments were performed on male spontaneously hypertensive rats (SHR; Taconic Farms, Germantown, N.Y., US) weight range 280-340 g. Body temperature was maintained at 37° C. during all surgical procedures and during recovery from anesthesia (i.e., until normal locomotor activity returned). Animals were anesthetized with pentobarbital (65 mg/kg, i.p.) and underwent permanent, right middle cerebral artery occlusion (MCAO) for 24 h as described previously (F. C. Barone et al., Neuroscience & Biobehavioral Reviews, 16 (1992) 219-33, and F. C. Barone et al., Stroke, 29 (1998) 1937-50). Body temperature was monitored throughout the surgical procedure by a rectal thermometer, and the animals maintained normothermic (37±0.5° C.) via a heating blanket controlled by the thermometer. A needle temperature probe was also inserted into the left temporalis muscle to give an indirect measurement of brain temperature. Actual core and temporalis temperature values were recorded at the time of MCA occlusion. […]
The rats were allowed to recover from surgery on a heating pad while containing to be under the influence of the pentobarbital anesthesia. Once animals were able to right themselves and begin spontaneous movement, they were placed in cages on the heating pads and monitored for any distress until fully recovered from anesthesia. […]

O=c1cc(N2CCOCC2)oc2c(-c3ccccc3)cccc12 [LY 294002, 2-(4-morpholinyl)-8-phenyl-4H-1-benzopyran-4-one]
phospho-GSK-3β level compared to control CN [1]: a decrease compared to control | IC50 [2]: 1400 nM | IC50 PI 3-kinase activity [2]: 0.43 µg/mL (≈ 1.4 µM)

NDDPPISIDLTFHLLRNMIEMARIENEREQAGLNRKYLDEV [Urotensin 1, Urotensin 1 (teleost fish, Sigma cat. no. U-7253), CRF receptor agonist peptide]
Mean survival % ([3]; agonist 0.3 nM with LY 294002 75 μM): 42% | Mean survival % ([3]; agonist 1 nM with LY 294002 75 μM): 52.89% | Mean survival % ([3]; agonist 3 nM with LY 294002 75 μM): 68% | Mean survival % ([3]; agonist 10 nM with LY 294002 75 μM): 74.44% | Mean survival % ([3]; agonist 30 nM with LY 294002 75 μM): 71.67% | Mean survival % ([3]; agonist 100 nM with LY 294002 75 μM): 71.17% | Mean survival % ([3]; agonist 300 nM with LY 294002 75 μM): 73.83% | Mean survival % ([3]; agonist 1000 nM with LY 294002 75 μM): 79.17% | cAMP synthesis induced by agonist (FIG. 3) [4]: cAMP production increased with agonist concentration | infarct size [5]: 70-80 mm^3 | numerical score for neurological deficits [5]: 9
